# Experimental data from patent US11339136B2 (Novartis AG, priority 2016, dated 2022).
# Biological target: T1, hNLRP3 (Homo sapiens, UniProt Q96P20)
# T1 construct: THP-1 cells were purchased from the American Type Culture Collection; host or cells: THP-1 cells, PMA-differentiated
# Experiment: IL-1β production in PMA-differentiated THP-1 cells stimulated with gramicidin
# Type: cell-based
# Conditions: gramicidin 5 μM, IL-1β in supernatant, Table 2
# Summary of the method: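 THP-1 cells differentiated with PMA (10 μg/ml, 24 h, or 20 ng/ml, 16-18 h), replated in 2% FBS RPMI and preincubated with compound for 1 h before 5 μM gramicidin for 2 h. Supernatant IL-1β measured by ELISA (1% DMSO) or HTRF (0.38% DMSO).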
# T1 sequence (Q96P20 whole entry): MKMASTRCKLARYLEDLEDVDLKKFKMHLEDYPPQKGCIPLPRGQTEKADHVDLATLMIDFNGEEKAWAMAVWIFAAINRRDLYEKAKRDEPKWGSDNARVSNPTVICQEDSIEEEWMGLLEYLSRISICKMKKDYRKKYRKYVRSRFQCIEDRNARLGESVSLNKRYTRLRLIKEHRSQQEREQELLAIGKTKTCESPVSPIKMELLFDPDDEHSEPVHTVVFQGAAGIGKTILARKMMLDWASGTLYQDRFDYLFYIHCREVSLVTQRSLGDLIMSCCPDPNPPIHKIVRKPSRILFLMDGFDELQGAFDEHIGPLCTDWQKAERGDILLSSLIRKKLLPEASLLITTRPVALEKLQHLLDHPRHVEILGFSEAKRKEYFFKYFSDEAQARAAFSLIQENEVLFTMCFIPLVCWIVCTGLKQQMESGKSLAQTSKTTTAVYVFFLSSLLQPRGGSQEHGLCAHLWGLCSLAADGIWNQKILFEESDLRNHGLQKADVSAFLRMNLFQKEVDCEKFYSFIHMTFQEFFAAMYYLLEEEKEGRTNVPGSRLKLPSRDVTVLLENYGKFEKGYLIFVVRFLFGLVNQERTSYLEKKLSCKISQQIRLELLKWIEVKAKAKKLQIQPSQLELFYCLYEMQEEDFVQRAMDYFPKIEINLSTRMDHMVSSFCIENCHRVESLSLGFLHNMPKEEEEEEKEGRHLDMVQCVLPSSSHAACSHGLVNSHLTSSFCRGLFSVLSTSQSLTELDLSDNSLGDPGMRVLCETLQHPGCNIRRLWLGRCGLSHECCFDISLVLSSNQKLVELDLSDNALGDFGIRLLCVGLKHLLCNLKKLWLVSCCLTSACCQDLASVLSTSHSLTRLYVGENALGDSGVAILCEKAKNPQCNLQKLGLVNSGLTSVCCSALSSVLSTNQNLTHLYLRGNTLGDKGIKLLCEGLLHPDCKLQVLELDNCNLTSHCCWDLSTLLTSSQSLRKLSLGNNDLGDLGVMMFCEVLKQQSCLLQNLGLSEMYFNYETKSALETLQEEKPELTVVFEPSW
row,IC50,Structure (SMILES)
1,< 1 µM,"CC(C)(O)c1cc(S(=O)(=O)NC(=O)Nc2c3c(cc4c2CCC4)CCC3)oc1Cl [Compound 255, 5-chloro-N-(1,2,3,5,6,7-hexahydros-indacen-4-ylcarbamoyl)-4-(2-hydroxypropan-2-yl)furan-2-sulfonamide]"
2,< 1 µM,CC(C)c1cc(F)cc(C(C)C)c1NC(=O)NS(=O)(=O)c1ccc(C(C)(C)O)s1 [Compound 257]
3,1 to 5 µM,CC(C)c1cccc(C(C)C)c1NC(=O)NS(=O)(=O)c1ncc(C(C)(C)O)s1 [Compound 261]
4,1 to 5 µM,"CC(C)c1ccc(C#N)c(C(C)C)c1NC(=O)NS(=O)(=O)c1cc(C(C)(C)O)cs1 [Compound 262, N-(3-cyano-2,6-diisopropylphenylcarbamoyl)-4-(2-hydroxypropan-2-yl) thiophene-2-sulfonamide]"
5,1 to 5 µM,"CC(C)c1ccc(C#N)c(C(C)C)c1NC(=O)NS(=O)(=O)c1ncc(C(C)(C)O)s1 [Compound 263, N-(3-cyano-2,6-diisopropylphenylcarbamoyl)-5-(2-hydroxypropan-2-yl) thiazole-2-sulfonamide]"
6,5 to 15 µM,"Cc1sc(S(=O)(=O)NC(=O)Nc2c(C(C)C)ccc(C#N)c2C(C)C)cc1C(C)(C)O [Compound 264, N-(3-cyano-2,6-diisopropylphenylcarbamoyl)-4-(2-hydroxypropan-2-yl)-5-methylthiophene-2-sulfonamide]"
7,5 to 15 µM,"CC(C)c1ccc(C#N)c(C(C)C)c1NC(=O)NS(=O)(=O)c1cc(C(C)(C)O)c(Cl)s1 [Compound 265, 5-chloro-N-(3-cyano-2,6-diisopropylphenylcarbamoyl)-4-(2-hydroxypropan-2-yl) thiophene-2-sulfonamide]"
8,1 to 5 µM,CC(C)(O)c1ncsc1S(=O)(=O)NC(=O)Nc1c2c(cc3c1CCC3)CCC2 [Compound 266]
9,1 to 5 µM,CC(C)c1cc(C#N)cc(C(C)C)c1NC(=O)NS(=O)(=O)c1cnc(C(C)(C)O)s1 [Compound 267]
10,1 to 5 µM,CC(C)(O)c1ncsc1S(=O)(=O)NC(=O)Nc1c2c(c(F)c3c1CCC3)CCC2 [Compound 268]
11,1 to 5 µM,CC(C)c1cc(F)cc(C(C)C)c1NC(=O)NS(=O)(=O)c1cnc(C(C)(C)O)s1 [Compound 269]
12,1 to 5 µM,CC(C)c1cccc(C(C)C)c1NC(=O)NS(=O)(=O)c1cnc(C(C)(C)O)s1 [Compound 270]
13,1 to 5 µM,CC(C)c1ccc(Cl)c(C(C)C)c1NC(=O)NS(=O)(=O)c1cnc(C(C)(C)O)s1 [Compound 271]
14,1 to 5 µM,Cc1cc(C(C)C)c(NC(=O)NS(=O)(=O)c2cnc(C(C)(C)O)s2)c(C(C)C)c1 [Compound 272]
15,5 to 15 µM,CC(C)(O)c1ncsc1S(=O)(=O)NC(=O)Nc1c2c(c(Cl)c3c1CCC3)CCC2 [Compound 273]
16,5 to 15 µM,CC(C)c1ccc(F)c(C(C)C)c1NC(=O)NS(=O)(=O)c1cnc(C(C)(C)O)s1 [Compound 274]
